Patent US20150216975A1, “NANOVECTOR BASED DRUG DELIVERY SYSTEM FOR OVERCOMING DRUG RESISTANCE” (WILLIAM MARSH RICE UNIVERSITY, priority 2012, published 2015)

Key:
[1] = system: HER2-neu+ cervical cancer cells; assay: Total cell protein of cervical cancer cells after antibody-guided PEG-HCC drugs and pump inhibitors (FIG. 4A); type: cell-based, human; settings: 24 hours
Description: (§1) Applicants also investigated whether the potentiation of Vin and Doc toxicity (by Halo and Indo) was applicable to other cancer types. Applicants obtained human breast and cervical cancer cells from the ATCC and grew them in 96 well format.
(§2) In a pair of 96-well plates, confluent cancer cells were treated with 1 μM (Indo or Halo)/PEG-HCC and/or 1 μM (Doc or Vin)/PEG-HCC. The inhibitors were guided to the cell surface using anti-HER2 antibodies. The chemotherapeutics were guided using EGFR antibodies. After incubation for 24 hours, one plate was used to measure total cell protein, and the other was used in dye labeling studies (as described above). This was done for both HER2-neu+ breast and HER2-neu+ cervical cancer cells (where HER2-neu is human epidermal growth factor receptor-2).
100 nM Doc delivered using EGFR IgG yielded 78% of the control, whereas 100 nM Vin yielded 87% of the control. Halo increased the toxicity of Doc, lowering the total protein to 25% of the control. […] Indo increased the toxicity of Doc slightly (from 78% to 68%) and Vin greatly (from 87% to 36%). In the panels of FIG. 4C, the dye retention of these cervical cancer cells is shown under the same conditions. All four compounds cause a significant brightening of the cells.

GBM cells (BT111 cells) = assay: Toxicity of Doc/Vin and Halo/Indo delivered as peptidyl-PEG-HCC in GBM cells, living cell numbers (FIG. 12); type: cell-based, human; settings: gliomal cells, 24 hours, 50 nM drug; for toxicity in the presence of both pump inhibitors (Halo and Indo): 1 μM Halo and Indo as peptidyl-PEG-HCC; for toxicity on co-incubation with Halo: 1 μM Halo as peptidyl-PEG-HCC (YRWYGYTPQNVI)
Description: (§3) In all cases, living cell numbers were calculated at n=6 individual wells and assayed using Hoe. Cells were incubated for 24 hours with Doc or Vin and targeted to the cell surface with peptidyl-PEG-HCC. The targeting peptidyl sequence was DFKLFAVTIKYR, which targets Intigrins αvβ3 and α5β. FIGS. 12B-12C provide data illustrating that drug pump inhibitors Halo and Indo potentiate the effects of Vin and Doc on GBM and breast cancer cells. Cells were incubated with PEG-HCC (control), 50 nM Doc or Vin, or Doc and Vin as peptidyl-PEG-HCC (using DFKLFAVTIKYR targeting Intigrins αvβ3 and α5β). Additionally, these four incubants were treated with PEG-HCC (control), 1 μM Halo or Indo, or Halo and Indo as peptidyl-PEG-HCC (using YRWYGYTPQNVI targeting EGFR).

[2] = system: xenobiotic pumps in human primary GBM cells; assay: Retention of xenobiotic pump dye substrates (Rh123, BCECF, Hoe) in GBM cells (FIG. 1, 2A, 2F); type: cell-based; settings: for dye retention, chemotherapeutic drug alone / dye accumulation in drug and inhibitor combinations / dye retention, pump inhibitor loaded on PEG-HCC targeted by IL-13R IgGs: GBM cells; for dye retention, chemotherapeutic drug alone / dye accumulation in drug and inhibitor combinations: 24 hours; for dye retention, chemotherapeutic drug alone: 100 nM as GFAPAB/Drug/PEG-HCC; for dye accumulation in drug and inhibitor combinations: 100 nM drug and 2 μM inhibitor on targeted PEG-HCC (FIG. 2A); for dye retention, pump inhibitor loaded on PEG-HCC targeted by IL-13R IgGs: Il-13RAB/Inhibitor/PEG-HCC (FIG. 2A, 2F); for retention of dyes (Rh123, BCECF, Hoe): human GBM cells, ninety minutes, 20 μM Fumitremorgin C, 200 μM Indomethacin
From the text: Applicants investigated the ability of human primary glioma cells to retain dyes in the absence and presence of known drug pump inhibitors. […] After ninety minutes, the cells were fixed using ice-cold 2% paraformaldehyde. The fixed cells were stored overnight in a refrigerator. The cells were then washed three times in phosphate buffered saline at pH 7.4 (PBS) and imaged in a fluorescence microscope.
In this experiment, PEG-HCCs were loaded with Halo, Sulfinpyrazone (Sulf) or Indo. The same methodologies outlined above were used. The constructs were then targeted to GBM cells by IL-13R IgGs.
(§4) The drugs (Vin and Doc) were delivered to a final concentration of 100 nM in the form of GFAPAB/Drug/PEG-HCC. In some experiments, pump inhibitors Haloperidol (Halo) and Indomethacin (Indo) were added at a final concentration of 2 μM in the form of Il-13RAB/Inhibitor/PEG-HCC. Controls consisting of unloaded PEG-HCC, drug/inhibitor loaded PEG-HCC, GFAPAB, or saline were also used. Cells were treated for 24 hours with GFAPAB/Drug/PEG-HCC and/or Il-13RAB/Halo/PEG-HCC. Next, the cells were incubated for 1 hour with Rh123, BCECF-AM and Hoe, as previously described. Cells were then imaged at ×30 magnification using filters for Rh123, BCECF and Hoe.

[3] = system: human breast cancer cells; assay: Toxicity of Doc/Vin and Halo/Indo delivered as peptidyl-PEG-HCC in breast cancer cells (FIG. 12); type: cell-based; settings: 50 nM drug; for potentiation of toxicity by Indo: 1 μM Indo as peptidyl-PEG-HCC
Description: as §3

[4] = system: glioblastoma cells grown in culture; assay: Living and dead GBM cell counts after Drug/PEG-HCC with or without Halo (FIG. 2B-2E); type: cell-based, human; settings: for dead cell numbers when Halo is used in conjunction: 24 hours, drug/PEG-HCC with Halo (FIG. 2C)
Description: as §4
Furthermore, it is shown in FIG. 2C that the dead cell numbers are elevated when Halo is used in conjunction with both Vin and Doc.
FIGS. 2D-2E show additional data relating to Halo-mediated potentiation of Vin, Doc and SN38 toxicity in HADES compositions.

[5] = system: HER2-neu+ breast cancer cells; assay: Total cell protein of breast cancer cells after antibody-guided PEG-HCC drugs and pump inhibitors (FIG. 4B); type: cell-based, human; settings: 24 hours
Description: as §1, §2
100 nM Doc delivered using EGFR IgG yielded 51% of the control, whereas 100 nM Vin yielded 65% of the control. Halo increased the toxicity of Doc, thereby lowering the total protein to 30% of the control. […] In the panels of FIG. 4D, the dye retention of these breast cancer cells is shown under the same conditions. All four compounds cause a significant brightening of the cells. The inhibitor and chemotherapeutic combination panels also indicate that dye retention is potentiated in all four combinations/permutations.

GBM cells = assay: Potentiation of Vin or Doc toxicity in GBM cells by targeted vs untargeted Halo or Indo via IgG/PEG-HCC delivery, cell numbers (FIG. 3); type: cell-based, human; settings: for cell number (% of control): 24 hours; for increase of toxicity by pump inhibition by Halo (targeted vs untargeted, untargeted averaged to 100%) / increase of toxicity by pump inhibition by Indo (targeted vs untargeted, untargeted averaged to 100%): FIG. 3B
Description: To confirm the potentiation effect of chemotherapeutic agents and pump inhibitors, Applicants performed a similar experiment to that shown in FIG. 2. In these experiments, Applicants examined the effects of both inhibitors on both chemotherapeutics. Applicants also inverted the targeting antibodies by utilizing GFAPAB/(Indo or Halo)/PEG-HCC and Il-13RAB/(Doc or Vin)/PEG-HCC. 2 μM Halo/PEG-HCC and Indo/PEG-HCC without antibody targeting were used as controls, which were added with and without 100 nM Vin or Doc as Il-13RAB/Drug/PEG-HCC.
200 nM Il-13RAB/Doc/PEG-HCC caused a drop in cell number to 75% and to 72% (the level seen in the controls) in the presence of (untargeted) Halo/PEG-HCC and Indo/PEG-HCC, respectively. However, targeting of Halo caused a large change in Doc toxicity. The inclusion of an antibody with Halo/PEG-HCC changed the toxicity from 75% to 37%. The inclusion of an antibody with Indo/PEG-HCC changed the Doc toxicity from 72% to 50%.
Vin toxicity was also potentiated in the presence of targeted xenobiotic pump inhibitors. Furthermore, the targeting of Halo dropped the cell numbers from 45% (control number, untargeted) to 27% (targeted). […] However, when Indo was targeted to the GBM cells, this dropped to only 14%. […] Only the potentiating effect is shown, comparing targeted and untargeted xenobiotic pump inhibitors, so that the cell numbers in the presence of untargeted pump inhibitor are averaged to 100%.

[6] = 100 nM drug delivered using EGFR IgG, no pump inhibitor
[7] = drug via EGFR IgG plus Indo/PEG-HCC guided by anti-HER2
[8] = drug via EGFR IgG plus Halo/PEG-HCC guided by anti-HER2

Row | SMILES | total cell protein (% of the control) [1, 6] [%] | total cell protein (% of the control) [1, 7] [%] | toxicity in the presence of both pump inhibitors (Halo and Indo) (GBM cells (BT111 cells)) | toxicity on co-incubation with Halo (GBM cells (BT111 cells)) | dye retention, chemotherapeutic drug alone [2] | dye accumulation in drug and inhibitor combinations [2] | potentiation of toxicity by Indo [3] | dead cell numbers when Halo is used in conjunction [4] | total cell protein (% of the control) [5, 6] [%] | total cell protein (% of the control) [5, 7] [%] | increase of toxicity by pump inhibition by Halo (targeted vs untargeted, untargeted averaged to 100%) (GBM cells) | increase of toxicity by pump inhibition by Indo (targeted vs untargeted, untargeted averaged to 100%) (GBM cells) [%] | dye retention, pump inhibitor loaded on PEG-HCC targeted by IL-13R IgGs [2] | retention of dyes (Rh123, BCECF, Hoe) [2] | also measured
1 | CC[C@]1(O)C[C@@H]2CN(CCc3c([nH]c4ccccc34)[C@@](C(=O)OC)(c3cc4c(cc3OC)N(C)[C@H]3[C@@](O)(C(=O)OC)[C@H](OC(C)=O)[C@]5(CC)C=CCN6CC[C@]43[C@@H]65)C2)C1 [Vin, vinblastine] | 87 | 36 | did not lead to a greater level of toxicity than Indo alone | moderately enhanced | differentially increase dye retention | synergistic effect in dye accumulation | potentiated | elevated | 65 | 33 | approximately 50% | 70 | – | – | effect of Halo on toxicity (in words) [1]: slight effect; toxicity in the presence of Indo (GBM cells (BT111 cells); 1 μM Indo as peptidyl-PEG-HCC (YRWYGYTPQNVI)): more than doubled; effect of Halo on toxicity (in words) [5]: no potentiating effect; cell number (% of control) (GBM cells; drug as Il-13RAB/Drug/PEG-HCC with antibody-targeted Halo/PEG-HCC (GFAPAB)): 27%; cell number (% of control) (GBM cells; drug as Il-13RAB/Drug/PEG-HCC with antibody-targeted Indo/PEG-HCC (GFAPAB)): 14%
2 | COc1ccc2c(c1)c(CC(=O)O)c(C)n2C(=O)c1ccc(Cl)cc1 [Indo, Indomethacin] | – | – | – | – | – | – | – | – | – | – | – | – | same experimental results were obtained | increase dye retention of all dyes | –
3 | COc1ccc2c3c([nH]c2c1)[C@H](C=C(C)C)N1C(=O)[C@@H]2CCCN2C(=O)[C@@H]1C3 [Fumitremorgin C] | – | – | – | – | – | – | – | – | – | – | – | – | – | increase dye retention of all dyes | –
4 | CC(=O)O[C@@]12CO[C@@H]1C[C@H](O)[C@@]1(C)C(=O)[C@H](O)C3=C(C)[C@@H](OC(=O)[C@H](O)[C@@H](NC(=O)OC(C)(C)C)c4ccccc4)C[C@@](O)([C@@H](OC(=O)c4ccccc4)[C@H]21)C3(C)C [Doc, docetaxel] | 78 | 68 | greater level of toxicity than Halo or Indo alone | more enhanced by co-incubation with Halo | differentially increase dye retention | synergistic effect in dye accumulation | potentiated | elevated | 51 | 68 | approximately 50% | 40 | – | – | total cell protein (% of the control) [1, 8]: 25%; toxicity with both pump inhibitors (Halo and Indo) ([3]; 1 μM Halo and Indo as peptidyl-PEG-HCC): greatly by both on combination; potentiation of toxicity by Halo ([3]; 1 μM Halo as peptidyl-PEG-HCC): potentiated; total cell protein (% of the control) [5, 8]: 30%
5 | O=C(CCCN1CCC(O)(c2ccc(Cl)cc2)CC1)c1ccc(F)cc1 [Halo, Haloperidol] | – | – | – | – | – | – | – | – | – | – | – | – | same experimental results were obtained | – | –
6 | CCc1c2c(nc3ccc(O)cc13)-c1cc3c(c(=O)n1C2)COC(=O)[C@]3(O)CC [SN-38] | – | – | – | – | – | – | – | – | – | – | – | – | – | – | effect of Halo on toxicity in HADES compositions ([4]; FIGS. 2D-2E): minimally affected
